Legend:
Experiment in all cases: relative viability (nuclei count vs DMSO), 5 days (fraction); higher = more cells survive
Bosutinib + Trametinib = compound: COc1cc(Nc2c(C#N)cnc3cc(OCCCN4CCN(C)CC4)c(OC)cc23)c(Cl)cc1Cl [Bosutinib] + CC(=O)Nc1cccc(-n2c(=O)n(C3CC3)c(=O)c3c(Nc4ccc(I)cc4F)n(C)c(=O)c(C)c32)c1 [Trametinib] (partner 0.02 µM)
Method in brief: (§1)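 One day after seeding in 1536-well plates, lung cancer cell lines were dosed by pin tool. Dosing was either single-drug or a fixed anchor-drug dose plus five library-drug doses (not always all listed) in √10 steps. After 5 days, nuclei were stained in one fix-and-stain step and counted on 4× images, and relative viability is the nuclei count of treated wells over that of vehicle wells, given as the median of duplicate plates.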

Bosutinib + Navitoclax = compound: COc1cc(Nc2c(C#N)cnc3cc(OCCCN4CCN(C)CC4)c(OC)cc23)c(Cl)cc1Cl [Bosutinib] + CC1(C)CCC(c2ccc(Cl)cc2)=C(CN2CCN(c3ccc(C(=O)NS(=O)(=O)c4ccc(N[C@H](CCN5CCOCC5)CSc5ccccc5)c(S(=O)(=O)C(F)(F)F)c4)cc3)CC2)C1 [Navitoclax] (partner 0.5 µM)
Method in brief: as §1

Bosutinib + Foretinib = compound: COc1cc(Nc2c(C#N)cnc3cc(OCCCN4CCN(C)CC4)c(OC)cc23)c(Cl)cc1Cl [Bosutinib] + COc1cc2c(Oc3ccc(NC(=O)C4(C(=O)Nc5ccc(F)cc5)CC4)cc3F)ccnc2cc1OCCCN1CCOCC1 [Foretinib] (partner 0.25 µM)
Method in brief: as §1

Bosutinib + Lapatinib = compound: COc1cc(Nc2c(C#N)cnc3cc(OCCCN4CCN(C)CC4)c(OC)cc23)c(Cl)cc1Cl [Bosutinib] + CS(=O)(=O)CCNCc1ccc(-c2ccc3ncnc(Nc4ccc(OCc5cccc(F)c5)c(Cl)c4)c3c2)o1 [Lapatinib] (partner 2 µM)
Method in brief: as §1

Bosutinib + Dasatinib = compound: COc1cc(Nc2c(C#N)cnc3cc(OCCCN4CCN(C)CC4)c(OC)cc23)c(Cl)cc1Cl [Bosutinib] + Cc1nc(Nc2ncc(C(=O)Nc3c(C)cccc3Cl)s2)cc(N2CCN(CCO)CC2)n1 [Dasatinib] (partner 0.075 µM)
Method in brief: as §1

Row | Cell Line | relative viability (Bosutinib + Trametinib; first compound 0.01 µM) | relative viability (Bosutinib + Trametinib; first compound 0.03162 µM) | relative viability (Bosutinib + Trametinib; first compound 0.1 µM) | relative viability (Bosutinib + Trametinib; first compound 1 µM) | relative viability (Bosutinib + Navitoclax; first compound 0.01 µM) | relative viability (Bosutinib + Navitoclax; first compound 0.03162 µM) | relative viability (Bosutinib + Navitoclax; first compound 0.1 µM) | relative viability (Bosutinib + Navitoclax; first compound 1 µM) | relative viability (Bosutinib + Foretinib; first compound 0.01 µM) | relative viability (Bosutinib + Foretinib; first compound 0.03162 µM) | relative viability (Bosutinib + Foretinib; first compound 0.1 µM) | relative viability (Bosutinib + Foretinib; first compound 1 µM) | relative viability (Bosutinib + Lapatinib; first compound 0.01 µM) | relative viability (Bosutinib + Lapatinib; first compound 0.03162 µM) | relative viability (Bosutinib + Lapatinib; first compound 0.1 µM) | relative viability (Bosutinib + Lapatinib; first compound 1 µM) | relative viability (Bosutinib + Dasatinib; first compound 0.01 µM) | relative viability (Bosutinib + Dasatinib; first compound 0.03162 µM) | relative viability (Bosutinib + Dasatinib; first compound 0.1 µM) | relative viability (Bosutinib + Dasatinib; first compound 1 µM)
1 | HCC-366 | 0.319 | 0.226 | 0.326 | 0.215 | 1.08 | 1.05 | 0.997 | 0.49 | 0.884 | 0.97 | 0.971 | 0.879 | 1.16 | 0.942 | 0.939 | 0.884 | 0.755 | 0.627 | 0.692 | 0.66
2 | HCC-827 | 0.55 | 0.6 | 0.594 | 0.18 | 1 | 0.986 | 1.04 | 0.933 | 0.965 | 1.04 | 1.02 | 0.203 | 0.167 | 0.25 | 0.19 | 0.169 | 0.287 | 0.279 | 0.307 | 0.178
3 | HOP-62 | 0.377 | 0.425 | 0.401 | 0.354 | 0.901 | 0.982 | 1.04 | 1.09 | 1.11 | 0.965 | 1.13 | 1.12 | 0.977 | 1.12 | 1.08 | 1.01 | 0.692 | 0.639 | 0.671 | 0.688
4 | IA-LM | – | – | – | – | 0.779 | 0.816 | 0.842 | 0.764 | 1.1 | 1.18 | 1.14 | 0.982 | 0.811 | 0.848 | 0.92 | 0.798 | – | – | – | –
5 | LC-2-ad | 0.953 | 0.898 | 0.892 | 0.859 | 0.476 | 0.54 | 0.52 | 0.468 | 0.982 | 0.979 | 0.948 | 0.61 | 0.99 | 0.92 | 1.05 | 1.01 | 0.678 | 0.701 | 0.659 | 0.906
6 | LCLC-97TM1 | 0.201 | 0.209 | 0.192 | 0.179 | 0.541 | 0.464 | 0.595 | 0.483 | 0.902 | 0.902 | 0.904 | 0.894 | 1.43 | 1.29 | 1.24 | 1.14 | 0.849 | 0.869 | 0.851 | 0.685
7 | LCLC-103H | 0.747 | 0.685 | 0.672 | 0.656 | – | – | – | – | 0.844 | 0.674 | 0.804 | 0.878 | – | – | – | – | 0.513 | 0.502 | 0.567 | 0.449
8 | LK-2 | 0.873 | 0.784 | 0.667 | 0.672 | 0.955 | 0.943 | 0.838 | 0.74 | 1.1 | 1.49 | 1.19 | 0.914 | 0.848 | 1.12 | 0.944 | 0.803 | 0.288 | 0.287 | 0.264 | 0.296
9 | LOU-NH91 | 0.816 | 0.805 | 0.771 | 0.672 | 0.755 | 0.713 | 0.666 | 0.391 | 0.912 | 0.929 | 0.845 | 0.538 | 0.759 | 0.824 | 0.791 | 0.723 | 0.578 | 0.577 | 0.547 | 0.556
10 | LU99A | 0.53 | 0.623 | 0.645 | 0.517 | 0.769 | 0.878 | 0.782 | 1.06 | 0.853 | 1.04 | 0.967 | 1.07 | 1.05 | 1.01 | 0.976 | 0.876 | 0.611 | 0.582 | 0.635 | 0.548
11 | NCI-H358 | 0.132 | 0.128 | 0.121 | 0.109 | – | – | – | – | 0.896 | 0.705 | 0.648 | 0.494 | 0.558 | 0.476 | 0.41 | 0.543 | 0.2 | 0.201 | 0.206 | 0.366
12 | NCI-H441 | 0.509 | 0.476 | 0.436 | 0.379 | 0.589 | 0.599 | 0.411 | 0.518 | 1.03 | 1.21 | 1.22 | 1.25 | – | – | – | – | 0.55 | 0.667 | 0.676 | 0.848
13 | NCI-H650 | 0.907 | 0.918 | 0.961 | 0.975 | – | – | – | – | 1.05 | 1 | 1.09 | 1.04 | 0.889 | 1.07 | 0.948 | 1.15 | 0.47 | 0.502 | 0.488 | 0.552
14 | NCI-H661 | 0.616 | 0.554 | 0.565 | 0.439 | – | – | – | – | 1.07 | 0.995 | 0.968 | 0.596 | 0.489 | 0.511 | 0.468 | 0.354 | 0.947 | 0.883 | 0.884 | 0.814
15 | NCI-H1563 | – | – | – | – | – | – | – | – | 0.917 | 0.953 | 0.846 | 0.676 | 0.869 | 0.931 | 0.84 | 0.758 | 0.444 | 0.47 | 0.446 | 0.472
16 | NCI-H1703 | – | – | – | – | 0.985 | 1.06 | 0.922 | 0.43 | 0.371 | 0.345 | 0.334 | 0.246 | 1.04 | 1.1 | 0.825 | 0.653 | – | – | – | –
17 | NCI-H1792 | 0.478 | 0.416 | 0.437 | 0.316 | 0.68 | 0.682 | 0.67 | 0.619 | – | – | – | – | 0.892 | 0.866 | 0.918 | 0.866 | 0.805 | 0.796 | 0.875 | 0.781
18 | NCI-H2342 | 0.706 | 0.703 | 0.856 | 1.1 | – | – | – | – | 0.903 | 0.994 | 0.999 | 1.05 | – | – | – | – | 0.289 | 0.305 | 0.317 | 0.344
19 | SW 900 | 0.809 | 0.674 | 0.784 | 0.61 | – | – | – | – | 0.806 | – | 1.04 | 0.721 | – | – | – | – | 0.774 | – | 0.682 | 0.749
